Results published in patent publication US10947210B2 (priority 2015, dated 2021).

Target: HCV RNA-dependent RNA polymerase (NS5B) (Hepatitis C virus genotype 1b (isolate BK) (HCV), UniProt P26663)
Assay: RNA-Dependent RNA HCV NS5B (polymerase) Assay and IC50 Determination
Format: biochemical
Conditions: purified HCV NS5B polymerase, polyA:U16 substrate, 32P-UTP incorporation; read-out: IC50
Experimental: RNA-Dependent RNA HCV NS5B (polymerase) Assay and IC50 Determination.
The reaction mixtures consisted of 50 mM Hepes-KOH, pH 7.5, 5 mM MgCl2, 5 mM DTT, 2% glycerol, 0.01% Triton® X-100, 0.5 uM polyA:U16 substrate, purified HCV RNA-dependent RNA polymerase, 10 μM UTP, and ^32P-UTP (Perkin Elmer). The reaction mixtures incubated at 30° C. for 60 minutes, and then filtered through Zeta probe membrane (BioRad). The filter was washed with 5×SSC (75 mM sodium citrate, pH 7 and 750 mM NaCl), and the radiolabeled RNA products were quantitated by microbeta (Perkin Elmer). For IC50 determination, different concentrations of inhibitors were added to the polymerase reaction mixtures, and incubated at 37° C. for 60 minutes. IC50 values were determined using GraFit (Erithaus software).
Table 1 presents IC50 data obtained using the biochemical assay to test representative compounds. Data are presented as follows: “+++” means <0.1 μM; “++” means ≥0.1 μM but <1.0 μM; “+” means ≥1.0 μM.

Sequence of HCV RNA-dependent RNA polymerase (NS5B) (P26663 2420-3010): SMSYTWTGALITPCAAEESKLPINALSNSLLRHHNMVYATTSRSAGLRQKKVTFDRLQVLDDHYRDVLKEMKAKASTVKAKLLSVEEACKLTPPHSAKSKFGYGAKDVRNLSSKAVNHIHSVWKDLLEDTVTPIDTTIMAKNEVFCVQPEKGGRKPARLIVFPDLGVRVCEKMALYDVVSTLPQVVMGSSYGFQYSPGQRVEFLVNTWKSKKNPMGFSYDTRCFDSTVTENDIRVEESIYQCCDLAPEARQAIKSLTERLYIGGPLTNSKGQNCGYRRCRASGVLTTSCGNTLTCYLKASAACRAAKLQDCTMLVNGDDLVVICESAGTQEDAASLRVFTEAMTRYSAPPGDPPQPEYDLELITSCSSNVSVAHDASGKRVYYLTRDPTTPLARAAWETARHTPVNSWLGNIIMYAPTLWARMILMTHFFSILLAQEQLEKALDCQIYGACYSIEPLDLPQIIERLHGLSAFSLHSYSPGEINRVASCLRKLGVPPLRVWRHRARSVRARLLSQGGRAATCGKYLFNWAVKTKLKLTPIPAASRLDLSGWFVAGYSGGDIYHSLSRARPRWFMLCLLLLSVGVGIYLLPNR

Row | Structure (SMILES) | IC50 [nM]
1 | CNC(=O)c1c(-c2ccc(F)cc2)oc2cc(N(CCOCCOCCOCc3cccc(C(C)=O)c3)S(C)(=O)=O)c(C3CC3)cc12 [Compound 02-8B, 6-[(2-{2-[2-(3-Acetyl-benzyloxy)-ethoxy]-ethoxy}-ethyl)-methanesulfonyl-amino]-5-cyclopropyl-2-(4-fluoro-phenyl)-benzofuran-3-carboxylic Acid Methylamide] | > 1000
2 | CNC(=O)c1c(-c2ccc(F)cc2)oc2cc(N(CCOCCOCCOCCOCCOCc3cccc(C(C)=O)c3)S(C)(=O)=O)c(C3CC3)cc12 [Compound 02-8D, 6-({2-[2-(2-{2-[2-(3-Acetyl-benzyloxy)-ethoxy]-ethoxy}-ethoxy)-ethoxy]-ethyl}-methanesulfonyl-amino)-5-cyclopropyl-2-(4-fluoro-phenyl)-benzofuran-3-carboxylic Acid Methylamide] | > 1000
3 | CNC(=O)c1c(-c2ccc(F)cc2)oc2cc(N(CCOCCOCCOCCOCCOCCOCc3cccc(C(C)=O)c3)S(C)(=O)=O)c(C3CC3)cc12 [Compound 02-8E, 6-[(2-{2-[2-(2-{2-[2-(3-Acetyl-benzyloxy)-ethoxy]-ethoxy}-ethoxy)-ethoxy]-ethoxy}-ethyl)-methanesulfonyl-amino]-5-cyclopropyl-2-(4-fluoro-phenyl)-benzofuran-3-carboxylic Acid Methylamide] | > 1000
4 | CNC(=O)c1c(-c2ccc(F)cc2)oc2cc(N(CCOCCOCc3ccc(C(C)=O)cc3)S(C)(=O)=O)c(C3CC3)cc12 [Compound 02-8F, 6-({2-[2-(4-Acetyl-benzyloxy)-ethoxy]-ethyl}-methanesulfonyl-amino)-5-cyclopropyl-2-(4-fluoro-phenyl)-benzofuran-3-carboxylic Acid Methylamide] | > 1000
5 | CNC(=O)c1c(-c2ccc(F)cc2)oc2cc(N(CCOCCOCCOCCOCc3ccc(C(C)=O)cc3)S(C)(=O)=O)c(C3CC3)cc12 [Compound 02-8H, 6-{[2-(2-{2-[2-(4-Acetyl-benzyloxy)-ethoxy]-ethoxy}-ethoxy)-ethyl]-methanesulfonyl-amino}-5-cyclopropyl-2-(4-fluoro-phenyl)-benzofuran-3-carboxylic Acid Methylamide] | > 1000
6 | CNC(=O)c1c(-c2ccc(F)cc2)oc2cc(N(CCOCCOCCOCCOCCOCc3ccc(C(C)=O)cc3)S(C)(=O)=O)c(C3CC3)cc12 [Compound 02-8I, 6-({2-[2-(2-{2-[2-(4-Acetyl-benzyloxy)-ethoxy]-ethoxy}-ethoxy)-ethoxy]-ethyl}-methanesulfonyl-amino)-5-cyclopropyl-2-(4-fluoro-phenyl)-benzofuran-3-carboxylic Acid Methylamide] | > 1000
7 | CCOC(=O)/C(O)=C/C(=O)c1cccc(COCCOCCOCCOCCN(c2cc3oc(-c4ccc(F)cc4)c(C(=O)NC)c3cc2C2CC2)S(C)(=O)=O)c1 [Compound 02-9C, 4-[3-(2-{2-[2-(2-{[5-Cyclopropyl-2-(4-fluoro-phenyl)-3-methylcarbamoyl-benzofuran-6-yl]-methanesulfonyl-amino}-ethoxy)-ethoxy]-ethoxy}-ethoxymethyl)-phenyl]-2-hydroxy-4-oxo-but-2-enoic Acid Ethyl Ester] | > 1000
8 | CCOC(=O)/C(O)=C/C(=O)c1ccc(COCCOCCOCCOCCN(c2cc3oc(-c4ccc(F)cc4)c(C(=O)NC)c3cc2C2CC2)S(C)(=O)=O)cc1 [Compound 02-9H, 4-[4-(2-{2-[2-(2-{[5-Cyclopropyl-2-(4-fluoro-phenyl)-3-methylcarbamoyl-benzofuran-6-yl]-methanesulfonyl-amino}-ethoxy)-ethoxy]-ethoxy}-ethoxymethyl)-phenyl]-2-hydroxy-4-oxo-but-2-enoic Acid Ethyl Ester] | > 1000
9 | CNC(=O)c1c(-c2ccc(F)cc2)oc2cc(N(CCOCCOCCOCc3cccc(C(=O)/C=C(\O)C(=O)O)c3)S(C)(=O)=O)c(C3CC3)cc12 [Compound 02-10B, 4-(3-{2-[2-(2-{[5-Cyclopropyl-2-(4-fluoro-phenyl)-3-methylcarbamoyl-benzofuran-6-yl]-methanesulfonyl-amino}-ethoxy)-ethoxy]-ethoxymethyl}-phenyl)-2-hydroxy-4-oxo-but-2-enoic Acid] | > 1000
10 | CNC(=O)c1c(-c2ccc(F)cc2)oc2cc(N(CCOCCOCCOCCOCc3cccc(C(=O)/C=C(\O)C(=O)O)c3)S(C)(=O)=O)c(C3CC3)cc12 [Compound 02-10C, 4-[3-(2-{2-[2-(2-{[5-Cyclopropyl-2-(4-fluoro-phenyl)-3-methylcarbamoyl-benzofuran-6-yl]-methanesulfonyl-amino}-ethoxy)-ethoxy]-ethoxy}-ethoxymethyl)-phenyl]-2-hydroxy-4-oxo-but-2-enoic Acid] | 100 to 1000
11 | CNC(=O)c1c(-c2ccc(F)cc2)oc2cc(N(CCOCCOCCOCc3ccc(C(=O)/C=C(\O)C(=O)O)cc3)S(C)(=O)=O)c(C3CC3)cc12 [Compound 02-10G, 4-(4-{2-[2-(2-{[5-Cyclopropyl-2-(4-fluoro-phenyl)-3-methylcarbamoyl-benzofuran-6-yl]-methanesulfonyl-amino}-ethoxy)-ethoxy]-ethoxymethyl}-phenyl)-2-hydroxy-4-oxo-but-2-enoic Acid] | > 1000
12 | CNC(=O)c1c(-c2ccc(F)cc2)oc2cc(N(CCOCCOCCOCCOCc3ccc(C(=O)/C=C(\O)C(=O)O)cc3)S(C)(=O)=O)c(C3CC3)cc12 [Compound 02-10H, 4-[4-(2-{2-[2-(2-{[5-Cyclopropyl-2-(4-fluoro-phenyl)-3-methylcarbamoyl-benzofuran-6-yl]-methanesulfonyl-amino}-ethoxy)-ethoxy]-ethoxy}-ethoxymethyl)-phenyl]-2-hydroxy-4-oxo-but-2-enoic Acid] | > 1000
13 | CNC(=O)c1c(-c2ccc(F)cc2)oc2cc(N(CCOCCOCCOCCOCCOCc3ccc(C(=O)/C=C(\O)C(=O)O)cc3)S(C)(=O)=O)c(C3CC3)cc12 [Compound 02-10I, 4-{4-[2-(2-{2-[2-(2-{[5-Cyclopropyl-2-(4-fluoro-phenyl)-3-methylcarbamoyl-benzofuran-6-yl]-methanesulfonyl-amino}-ethoxy)-ethoxy]-ethoxy}-ethoxy)-ethoxymethyl]-phenyl}-2-hydroxy-4-oxo-but-2-enoic Acid] | > 1000
14 | CNC(=O)c1c(-c2ccc(F)cc2)oc2cc(N(CCOCCOCCOCCOCCOCCOCc3ccc(C(=O)/C=C(\O)C(=O)O)cc3)S(C)(=O)=O)c(C3CC3)cc12 [Compound 02-10J, 4-(4-{2-[2-(2-{2-[2-(2-{[5-Cyclopropyl-2-(4-fluoro-phenyl)-3-methylcarbamoyl-benzofuran-6-yl]-methanesulfonyl-amino}-ethoxy)-ethoxy]-ethoxy}-ethoxy)-ethoxy]-ethoxymethyl}-phenyl)-2-hydroxy-4-oxo-but-2-enoic Acid] | > 1000
15 | CNC(=O)c1c(-c2ccc(F)cc2)oc2cc(N(CCCOCCOCc3cccc(C(C)=O)c3)S(C)(=O)=O)c(C3CC3)cc12 [Compound 03-6A, 6-(N-(3-(2-((3-acetylbenzyl)-oxy)-ethoxy)-propyl)-methylsulfonamido)-5-cyclopropyl-2-(4-fluorophenyl)-N-methylbenzofuran-3-carboxamide] | > 1000
16 | CNC(=O)c1c(-c2ccc(F)cc2)oc2cc(N(CCCOCCOCc3cccc(C(=O)/C=C(\O)C(=O)O)c3)S(C)(=O)=O)c(C3CC3)cc12 [Compound 03-8A, 4-{3-[2-(3-{[5-Cyclopropyl-2-(4-fluoro-phenyl)-3-methylcarbamoyl-benzofuran-6-yl]-methanesulfonyl-amino}-propoxy)-ethoxymethyl]-phenyl}-2-hydroxy-4-oxo-but-2-enoic Acid] | 100 to 1000
17 | CNC(=O)c1c(-c2ccc(F)cc2)oc2cc(N(CCOCCOCCOCCN)S(C)(=O)=O)c(C3CC3)cc12 [Compound 04-10, 6-(N-(2-(2-(2-(2-Aminoethoxy)-ethoxy)-ethoxy)-ethyl)-methylsulfonamido)-5-cyclopropyl-2-(4-fluorophenyl)-N-methylbenzofuran-3-carboxamide] | > 1000
18 | CNC(=O)c1c(-c2ccc(F)cc2)oc2cc(N(CCOCCOCCOCCOC)S(C)(=O)=O)c(C3CC3)cc12 [Compound 05-4A, 6-(N-(2,5,8,11-Tetraoxatridecan-13-yl)-methylsulfonamido)-5-cyclopropyl-2-(4-fluorophenyl)-N-methylbenzofuran-3-carboxamide] | > 1000
19 | CCCCOCCOCCOCCN(c1cc2oc(-c3ccc(F)cc3)c(C(=O)NC)c2cc1C1CC1)S(C)(=O)=O [Compound 05-4B, 6-({2-[2-(2-Butoxy-ethoxy)-ethoxy]-ethyl}-methanesulfonyl-amino)-5-cyclopropyl-2-(4-fluoro-phenyl)-benzofuran-3-carboxylic Acid Methylamide] | > 1000
20 | CNC(=O)c1c(-c2ccc(F)cc2)oc2cc(N(CCOCCOCc3ccccc3C(=O)OC)S(C)(=O)=O)c(C3CC3)cc12 [Compound 06-6A, 2-[2-(2-{[5-Cyclopropyl-2-(4-fluoro-phenyl)-3-methylcarbamoyl-benzofuran-6-yl]-methanesulfonyl-amino}-ethoxy)-ethoxymethyl]-benzoic Acid Methyl Ester] | 100 to 1000
21 | CNC(=O)c1c(-c2ccc(F)cc2)oc2cc(N(CCOCCOCc3ccc(C(=O)OC)cc3)S(C)(=O)=O)c(C3CC3)cc12 [Compound 06-6B, 4-[2-(2-{[5-Cyclopropyl-2-(4-fluoro-phenyl)-3-methylcarbamoyl-benzofuran-6-yl]-methanesulfonyl-amino}-ethoxy)-ethoxymethyl]-benzoic Acid Methyl Ester] | > 1000
